Consider 25 compounds from BindingDB's records for doi:10.1016/j.bmcl.2005.07.039 (Universit&#233, 2005).

SMILES strings stand for the structures.

For the first test, the target named is Sigma non-opioid intracellular receptor 1 (Cavia porcellus) (UniProt Q60492). The test is described as follows: Inhibitory activity against opioid receptor sigma 1 in guinea pig cerebral cortex using [3H](+)-pentazocine as radio ligand at pH 7.5 for 150 min at 22 degree C.
Sigma non-opioid intracellular receptor 1 (Cavia porcellus), sequence (Q60492 whole entry, looked up): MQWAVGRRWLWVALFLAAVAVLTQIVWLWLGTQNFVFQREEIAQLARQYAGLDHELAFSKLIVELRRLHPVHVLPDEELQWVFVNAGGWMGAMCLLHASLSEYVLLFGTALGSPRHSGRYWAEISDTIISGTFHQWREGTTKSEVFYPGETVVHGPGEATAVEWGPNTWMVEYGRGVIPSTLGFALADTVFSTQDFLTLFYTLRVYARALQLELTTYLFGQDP
What is called IC50 is the point on the concentration scale where inhibition reaches its midpoint. Higher therefore signals a need for much substance. With `CC(C)NC(=O)CN1CCN(CCn2c(O)c3n(c2=O)Cc2ccccc2C3)CC1` [2-{4-[2-((S)-1,3-Dioxo-1,5,10,10a-tetrahydro-imidazo[1,5-b]isoquinolin-2-yl)-ethyl]-piperazin-1-yl}-N-isopropyl-acetamide], the half-maximal inhibitory concentration (IC50) is > 0.1 µM.

`O=c1n(CCCNCc2ccccc2)c(O)c2n1Cc1ccccc1C2` [(S)-2-(3-Benzylamino-propyl)-10,10a-dihydro-5H-imidazo[1,5-b]isoquinoline-1,3-dione] came in with an IC50 of 0.0096 µM.

Consider `CN1CCN(CCn2c(O)c3n(c2=O)Cc2ccccc2C3)CC1` [(S)-2-[2-(4-Methyl-piperazin-1-yl)-ethyl]-10,10a-dihydro-5H-imidazo[1,5-b]isoquinoline-1,3-dione], for which the IC50 is > 0.1 µM.

`CN(CCn1c(O)c2n(c1=O)Cc1ccccc1C2)Cc1ccccc1` [(S)-2-[2-(Benzyl-methyl-amino)-ethyl]-10,10a-dihydro-5H-imidazo[1,5-b]isoquinoline-1,3-dione] displayed a half-maximal inhibitory concentration (IC50) of 0.0045 µM.

In the case of `CN(CCc1ccccc1)CCn1c(O)c2n(c1=O)Cc1ccccc1C2` [(S)-2-[2-(Methyl-phenethyl-amino)-ethyl]-10,10a-dihydro-5H-imidazo[1,5-b]isoquinoline-1,3-dione], 0.0126 µM corresponded to half-maximal inhibition (IC50).

On to `O=c1n(CCCNC2CCN(Cc3ccccc3)CC2)c(O)c2n1Cc1ccccc1C2` [(S)-2-[3-(1-Benzyl-piperidin-4-ylamino)-propyl]-10,10a-dihydro-5H-imidazo[1,5-b]isoquinoline-1,3-dione], for which 0.0823 µM corresponded to half-maximal inhibition (IC50).

Compound `O=c1n(CCCN2CCN(Cc3ccc4c(c3)OCO4)CC2)c(O)c2n1Cc1ccccc1C2` [(S)-2-[3-(4-Benzo[1,3]dioxol-5-ylmethyl-piperazin-1-yl)-propyl]-10,10a-dihydro-5H-imidazo[1,5-b]isoquinoline-1,3-dione] returned an IC50 of 0.0238 µM.

`O=c1n(CCCN2CCN(Cc3ccccc3)CC2)c(O)c2n1Cc1ccccc1C2` [(S)-2-[3-(4-Benzyl-piperazin-1-yl)-propyl]-10,10a-dihydro-5H-imidazo[1,5-b]isoquinoline-1,3-dione] registered a 50% inhibitory concentration (IC50) of 0.032 µM.

For the compound `CN1CCN(CCCn2c(O)c3n(c2=O)Cc2ccccc2C3)CC1` [(S)-2-[3-(4-Methyl-piperazin-1-yl)-propyl]-10,10a-dihydro-5H-imidazo[1,5-b]isoquinoline-1,3-dione], the IC50 was > 0.1 µM.

Regarding `O=c1n(CCCNCCCCc2ccccc2)c(O)c2n1Cc1ccccc1C2` [(S)-2-[3-(4-Phenyl-butylamino)-propyl]-10,10a-dihydro-5H-imidazo[1,5-b]isoquinoline-1,3-dione], the IC50 turned out to be 0.0105 µM.

In turn, `CN(CCCn1c(O)c2n(c1=O)Cc1ccccc1C2)CCc1ccccc1` [(S)-2-[3-(Methyl-phenethyl-amino)-propyl]-10,10a-dihydro-5H-imidazo[1,5-b]isoquinoline-1,3-dione] registered an IC50 of 0.0021 µM.

For `CN(CCCn1c(O)c2n(c1=O)Cc1ccccc1C2)c1ccccc1` [(S)-2-[3-(Methyl-phenyl-amino)-propyl]-10,10a-dihydro-5H-imidazo[1,5-b]isoquinoline-1,3-dione], the half-maximal inhibitory concentration (IC50) was > 0.1 µM.

`CN(CCCCn1c(O)c2n(c1=O)Cc1ccccc1C2)Cc1ccccc1` [(S)-2-[4-(Benzyl-methyl-amino)-butyl]-10,10a-dihydro-5H-imidazo[1,5-b]isoquinoline-1,3-dione] came in with an IC50 of 0.0042 µM.

As to `CN(CCCCn1c(O)c2n(c1=O)Cc1ccccc1C2)CCc1ccccc1` [(S)-2-[4-(Methyl-phenethyl-amino)-butyl]-10,10a-dihydro-5H-imidazo[1,5-b]isoquinoline-1,3-dione], inhibition was half-maximal at 0.0099 µM (IC50).

`CN(CCCCCn1c(O)c2n(c1=O)Cc1ccccc1C2)Cc1ccccc1` [(S)-2-[5-(Benzyl-methyl-amino)-pentyl]-10,10a-dihydro-5H-imidazo[1,5-b]isoquinoline-1,3-dione] displayed an IC50 of 0.005 µM.

The compound `CN(CCCCCn1c(O)c2n(c1=O)Cc1ccccc1C2)CCc1ccccc1` [(S)-2-[5-(Methyl-phenethyl-amino)-pentyl]-10,10a-dihydro-5H-imidazo[1,5-b]isoquinoline-1,3-dione] yielded an IC50 of 0.0117 µM.

Consider `CN(CCCCCCn1c(O)c2n(c1=O)Cc1ccccc1C2)Cc1ccccc1` [(S)-2-[6-(Benzyl-methyl-amino)-hexyl]-10,10a-dihydro-5H-imidazo[1,5-b]isoquinoline-1,3-dione], for which the IC50 is 0.0094 µM.

Regarding `O=c1n(CCN2CCN(CCO)CC2)c(O)c2n1Cc1ccccc1C2` [(S)-2-{2-[4-(2-Hydroxy-ethyl)-piperazin-1-yl]-ethyl}-10,10a-dihydro-5H-imidazo[1,5-b]isoquinoline-1,3-dione], the half-inhibitory concentration (IC50) is > 0.1 µM.

For the compound `CN(C)CCCN1CCN(CCn2c(O)c3n(c2=O)Cc2ccccc2C3)CC1` [(S)-2-{2-[4-(3-Dimethylamino-propyl)-piperazin-1-yl]-ethyl}-10,10a-dihydro-5H-imidazo[1,5-b]isoquinoline-1,3-dione], the IC50 was > 1 µM.

Turning to `CN(CCCc1ccccc1)CCn1c(O)c2n(c1=O)Cc1ccccc1C2` [(S)-2-{2-[Methyl-(3-phenyl-propyl)-amino]-ethyl}-10,10a-dihydro-5H-imidazo[1,5-b]isoquinoline-1,3-dione], inhibition was half-maximal at 0.0136 µM (IC50).

`CN(CCCCc1ccccc1)CCn1c(O)c2n(c1=O)Cc1ccccc1C2` [(S)-2-{2-[Methyl-(4-phenyl-butyl)-amino]-ethyl}-10,10a-dihydro-5H-imidazo[1,5-b]isoquinoline-1,3-dione] displayed an IC50 of 0.0032 µM.

In turn, `CN(CCCCCc1ccccc1)CCn1c(O)c2n(c1=O)Cc1ccccc1C2` [(S)-2-{2-[Methyl-(5-phenyl-pentyl)-amino]-ethyl}-10,10a-dihydro-5H-imidazo[1,5-b]isoquinoline-1,3-dione] returned an IC50 of 0.0029 µM.

Turning to `O=c1n(CCCN2CCN(CCO)CC2)c(O)c2n1Cc1ccccc1C2` [(S)-2-{3-[4-(2-Hydroxy-ethyl)-piperazin-1-yl]-propyl}-10,10a-dihydro-5H-imidazo[1,5-b]isoquinoline-1,3-dione], the IC50 is > 0.1 µM.

As for `CN(C)CCCN1CCN(CCCn2c(O)c3n(c2=O)Cc2ccccc2C3)CC1` [(S)-2-{3-[4-(3-Dimethylamino-propyl)-piperazin-1-yl]-propyl}-10,10a-dihydro-5H-imidazo[1,5-b]isoquinoline-1,3-dione], the IC50 was > 0.1 µM.

Another test shares this target. The test is described as follows: Inhibitory activity against Opioid receptor sigma 1 in guinea pig cerebral cortex using [3H](+)-pentazocine as radio ligand at pH 7.5 for 150 min at 22 C.
`CN(CCCCCCn1c(O)c2n(c1=O)Cc1ccccc1C2)CCc1ccccc1` [(S)-2-[6-(Methyl-phenethyl-amino)-hexyl]-10,10a-dihydro-5H-imidazo[1,5-b]isoquinoline-1,3-dione] displayed a concentration for half-maximal inhibition (IC50) of 0.0295 µM.
